Values after ≈ are worked out from the molar mass of the structure shown. One block for each compound: values may come before it.
What was measured:
[1] = Drug distribution in C57BL/6 mouse plasma at po administration; format: ADME, organism-based; details: in vivo
[2] = Apparent permeability across basolateral to apical side in human Caco-2 cells; format: ADME, cell-based
[3] = Oral bioavailability in rat at 10 mg/kg measured upto 24 hrs; format: ADME, organism-based; details: in vivo
[4] = Apparent permeability across apical to basolateral side in human Caco-2 cells; format: ADME, cell-based
[5] = Half life in monkey liver microsomes; format: ADME, Macaca mulatta, Microsome; details: rhesus monkey
[6] = Half life in human liver microsomes; format: ADME, Microsome
[7] = Aqueous solubility of compound in SGF at pH 2.26; format: physicochemical
[8] = Tmax in ICR mouse at 10 mg/kg,po measured upto 24 hrs; format: ADME, organism-based; details: in vivo
[9] = Aqueous solubility of compound in FeSSIF at pH 4.83; format: physicochemical
[10] = Half life in mouse liver microsomes; format: ADME, Microsome
[11] = Oral bioavailability in dog at 10 mg/kg measured upto 24 hrs; format: ADME, organism-based, Canis lupus familiaris; details: in vivo
[12] = Half life in dog liver microsomes; format: ADME, Canis lupus familiaris, Microsome
[13] = Cmax in C57BL/6 mouse at 1 mg/kg,po measured upto 24 hrs; format: ADME, organism-based; design: dose 1 mg/kg, time < 24 hrs, route po; details: in vivo
[14] = AUClast in ICR mouse at 10 mg/kg,po measured upto 24 hrs; format: ADME, organism-based; design: time < 24 hrs, dose 10 mg/kg, route po; details: in vivo
[15] = AUClast in ICR mouse at 1 mg/kg,iv measured upto 24 hrs; format: ADME, organism-based; design: dose 1 mg/kg, time < 24 hrs, route iv; details: in vivo
[16] = Half life in rat liver microsomes; format: ADME, Microsome
[17] = Aqueous solubility of compound in FaSSIF at pH 6.28; format: physicochemical
[18] = Half life in mouse Hepatocyte; format: ADME, cell-based; details: hepatocytes
[19] = Cmax in ICR mouse at 10 mg/kg,po measured upto 24 hrs; format: ADME, organism-based; design: time < 24 hrs, dose 10 mg/kg, route po; details: in vivo
[20] = Clearance in ICR mouse at 1 mg/kg,iv measured upto 24 hrs; format: ADME, organism-based; details: in vivo
[21] = Half life in ICR mouse at 1 mg/kg,iv measured upto 24 hrs; format: ADME, organism-based; details: in vivo
[22] = Half life in ICR mouse at 10 mg/kg,po measured upto 24 hrs; format: ADME, organism-based; details: in vivo
[23] = Oral bioavailability in ICR mouse at 10 mg/kg measured upto 24 hrs; format: ADME, organism-based; details: in vivo
[24] = Volume of distribution at steady state in ICR mouse at 1 mg/kg,iv measured upto 24 hrs; format: ADME, organism-based; details: in vivo, read-out: Vdss
[25] = Cmax in ICR mouse at 1 mg/kg,iv measured upto 24 hrs; format: ADME, organism-based; design: time < 24 hrs, dose 1 mg/kg, route iv; details: in vivo

Structure (SMILES): COc1ncc(C(=O)N2CCN(C(=O)/C=C/c3ccc4c(c3)OC(F)(F)O4)CC2)cn1
Drug uptake [1]: Dose-Dependent Effect
Papp B→A [2]: 16 ×10⁻⁶ cm/s
bioavailability [3]: > 100%
Papp A→B [4]: 19.6 ×10⁻⁶ cm/s
half-life [5]: > 3.11 h
half-life [6]: > 3.11 h
solubility [7]: 63 µM (≈ 27.2 µg/mL)
Tmax [8]: 1.33 h
solubility [9]: 134 µM (≈ 57.9 µg/mL)
half-life [10]: > 3.11 h
bioavailability [11]: > 100%
half-life [12]: > 3.11 h
Cmax [13]: 878 ng/mL
AUC(0-t) at 24 h [14]: 49700 ng·h/mL
AUC(0-t) at 24 h [15]: 4190 ng·h/mL
half-life [16]: > 3.11 h
solubility [17]: 40 µM (≈ 17.3 µg/mL)
half-life [18]: 22.2 h
Cmax [19]: 5900 ng/mL
clearance [20]: 3.98 mL/min/kg

half-life [21]: 0.42 h
half-life [22]: 1.43 h
bioavailability [23]: 116%
Tmax [8]: 0.25 h
Vd [24]: 0.94 L/kg
AUC(0-t) at 24 h [14]: 6840 ng·h/mL
Cmax [25]: 1000 ng/mL
AUC(0-t) at 24 h [15]: 586 ng·h/mL
Cmax [19]: 4900 ng/mL
clearance [20]: 27.9 mL/min/kg
Structure (SMILES): O=C(/C=C/c1ccc2c(c1)OC(F)(F)O2)N1CCN(C(=O)N2CCC2)CC1
